These results are taken from ChEMBL document CHEMBL3396975, “Structural development of stapled short helical peptides as vitamin D receptor (VDR)-coactivator interaction inhibitors” (Bioorg Med Chem, 2015).

Starred links: 1 amine or outer side, 2 acyl side, 3 side chain; linkers in the order of their positions; H or OH if unused. Positions of bridges follow the written chain, without caps; N, C: chain ends. Non-standard residues stand in square brackets, D forms with d. Residues, ends and D or L forms follow the SMILES beside them. *: point of attachment. X2 = O=C(C(CO)(CO)N[*:1])[*:2]; X1 = OC(C[*:1])C(O)C[*:2]; hSer = N[C@@H](CCO)C(=O)O; X3 = C(CC[*:2])C[*:1]; Aib = CC(C)(N)C(=O)O; Allyl = C=CC*

This assay has as its target T1, Vitamin D3 receptor (Homo sapiens, UniProt P11473).
T1 sequence (P11473 whole entry): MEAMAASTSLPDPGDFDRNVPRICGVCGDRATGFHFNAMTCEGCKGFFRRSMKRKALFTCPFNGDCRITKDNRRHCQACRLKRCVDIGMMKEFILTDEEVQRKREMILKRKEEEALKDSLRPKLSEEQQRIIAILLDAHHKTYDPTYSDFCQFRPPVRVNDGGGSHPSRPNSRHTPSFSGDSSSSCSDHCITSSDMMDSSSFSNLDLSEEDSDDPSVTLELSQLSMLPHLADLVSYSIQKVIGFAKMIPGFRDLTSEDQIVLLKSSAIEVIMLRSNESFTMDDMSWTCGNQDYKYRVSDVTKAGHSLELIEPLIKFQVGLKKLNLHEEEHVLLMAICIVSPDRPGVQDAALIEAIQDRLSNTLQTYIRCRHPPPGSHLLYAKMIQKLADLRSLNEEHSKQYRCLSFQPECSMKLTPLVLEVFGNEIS
Kind of assay: Inhibition of human VDR-cofactor interaction by EnBio receptor cofactor assay system.

A word on the IC50: it is the midpoint of a concentration-inhibition curve. Lower therefore signals greater potency.

Regarding `CC(=O)N[C@@H](CC(C)C)C(=O)N[C@@H](CC(C)C)C(=O)N[C@H]1CCOCCCCOCC[C@@H](C(N)=O)NC(=O)[C@H](CC(C)C)NC(=O)[C@H](CC(C)C)NC(=O)C(CO)(CO)NC1=O` (Ac-LL[hSer][X2]LL[hSer]-NH2; linker 3-7 via X3), it took 20 µM to reach half-maximal inhibition (IC50).

As for `C=CCOCC[C@H](NC(=O)[C@H](CC(C)C)NC(=O)[C@H](CC(C)C)NC(=O)C(C)(C)NC(=O)[C@H](CCOCC=C)NC(=O)[C@H](CC(C)C)NC(=O)[C@@H](N)CC(C)C)C(=O)O` (H-LL[hSer](Allyl)[Aib]LL[hSer](Allyl)-OH), it took 500 µM to reach half-maximal inhibition (IC50).

Regarding `CC(=O)N[C@@H](CC(C)C)C(=O)N[C@@H](CC(C)C)C(=O)N[C@H]1CCOCC(O)C(O)COCC[C@@H](C(N)=O)NC(=O)[C@H](CC(C)C)NC(=O)[C@H](CC(C)C)NC(=O)C(C)(C)NC1=O` (stereo partly drawn) (Ac-LL[hSer][Aib]LL[hSer]-NH2; linker 3-7 via X1), half-maximal inhibition (IC50) was put at 67 µM.
